Data set [1] has as its system patients with moderate to severe psoriasis vulgaris. Nature of the data set: Phase 2a study LP0058-1072 (NCT02888236): orismilast 30 mg BID immediate release vs placebo, 16 weeks. The data set is classed as in vivo. How it is done: In a phase 2a prospective, randomized, double-blind, placebo-controlled clinical trial (NCT02888236), patients with moderate-to-severe psoriasis were randomized to receive 30 mg twice per day orally in the form of an immediate release (IR) formulation or placebo over 16 weeks.
The modified-release formulation was studied in a clinical trial (LP0058-1442) and administered in a total of 36 healthy volunteers: 18 in part 1, 9 in part 2, and 9 in part 3. Twenty-seven (27) healthy volunteers received a single administration of 30 mg orismilast, and 9 subjects received multiple administrations over a period of 17 days with an up-titration up to a maximum of 60 mg BID. Part 1 of this study was to evaluate the key PK parameters of the new modified-release formulation compared to the reference capsule formulation with immediate release. Orismilast was rapidly absorbed from both formulations with median tmax values of 3.00 hours post-dose for the immediate-release capsule and 2.52 hours post-dose for the modified-release tablet. The individual tmax ranges were approximately 1 to 6 hours post-dose for the immediate-release capsule and 1 to 4 hours post-dose for the modified-release tablet. […]

The test system of data set [2] is TARC and other inflammatory markers in atopic dermatitis skin lesions. The experiment in a line: Skin tape strip biomarkers (OLINK FLEX panel) in the phase 2b atopic dermatitis study (Example 11). The following applies: all treatment arms (20, 30, 40 mg BID). The data set is classed as in vivo, human. An excerpt:
Stratum corneum skin samples were collected at the designated time points using the tape stripping method to evaluate biomarker expression levels. Tape stripping is a minimally invasive, nonscarring approach using serial adhesive films to capture the stratum corneum and the upper part of the granular layer.
At Baseline, before administration of study drug, 1 lesional and 1 non-lesional area were identified, and 20 consecutive skin samples were collected from each area. At Week 16, the same procedure was repeated only from the same lesional areas sampled at Baseline.
Skin tape strip samples were taken from lesional and non-lesional skin at baseline and lesional skin at week 16 of patients participating in the phase 2b, double-blinded, placebo-controlled, dose-finding study (20 mg, 30 mg and 40 mg orismilast modified release tablets BID) in patients with moderate-to-severe atopic dermatitis (NCT05469464) described in Example 8. […] The primary objective of the biomarker study was to evaluate the effect of orismilast on a broad spectrum of inflammatory markers in atopic dermatitis skin lesions using tape strips as a non-invasive sampling technology combined with the Olink® technology (OLINK® FLEX panel) using analogous methods to those described in Example 10.
A linear mixed effect model was used on all patients to estimate Ismeans with standard error and adjusted p value.

Experimental findings from patent publication US12409172B2, “Dosage regimen” (UNION therapeutics A/S, priority 2023, dated 2025) are described below.

As to `O=C(Cc1c(Cl)c[n+]([O-])cc1Cl)c1ccc(OC(F)F)c2c1OC1(CCS(=O)(=O)CC1)O2` [orismilast, 2-(3,5-dichloro-1-oxidopyridin-1-ium-4-yl)-1-[7-(difluoromethoxy)-1′,1′-dioxospiro[1,3-benzodioxole-2,4′-thiane]-4-yl]ethanone], in data set [1], the “efficacy in psoriasis on each predefined endpoint” value is “confirmed” and the “patients withdrawn from the trial because of tolerability issues” value is given as “half”. The “TARC in lesional skin at week 16 of treatment” value in data set [2] was “significant reduction”.
